Data as given in ChEMBL document CHEMBL5113409, “Design and synthesis of proteolysis targeting chimeras (PROTACs) as an EGFR degrader based on CO-1686” (Eur J Med Chem, 2022).
The source made the active and inactive calls. No cut-off for these calls is given here.

Experiments:
Homo sapiens = species on record: Homo sapiens; experiment: Selectivity index, ratio of IC50 for wild type EGFR (unknown origin) to IC50 for Protein cereblon/Epidermal growth factor receptor L858R/T790M mutant
A549 = experiment: Anti-proliferative activity against human A549 cells assessed as reduction in cell proliferation incubated for 72 hrs by MTT assay; assay type: functional, cell-based; details: A549, 72 h
[1] = target: Epidermal growth factor receptor (Homo sapiens, UniProt P00533); experiment: Inhibition of wild type EGFR (unknown origin) incubated for 10 mins by HTRF KinEASE-TK assay
[2] = tested on: Protein cereblon/Epidermal growth factor receptor (Homo sapiens), P00533+Q96SW2 [L858R,T790M]; experiment: Protac activity at CRBN/EGFR L858R/T790M mutant in human NCI-H1975 cells assessed as L858R/T790M mutant degradation at 3 uM incubated for 48 hrs by Western blot analysis; assay type: cell-based
NCI-H1975 = experiment: Anti-proliferative activity against human NCI-H1975 cells assessed as reduction in cell proliferation incubated for 72 hrs by MTT assay; assay type: functional, cell-based; details: NCI-H1975, 72 h
[3] = target: Epidermal growth factor receptor (Homo sapiens, UniProt P00533, L858R/T790M); experiment: Inhibition of EGFR L858R/T790M mutant (unknown origin) incubated for 35 mins by HTRF KinEASE-TK assay
PC-9 = experiment: Anti-proliferative activity against human PC-9 cells assessed as reduction in cell proliferation incubated for 72 hrs by MTT assay; assay type: functional, cell-based; details: PC-9, 72 h

| SMILES | IC50 (A549) [µM] | IC50 (NCI-H1975) [µM] | IC50 (PC-9) [µM] | Ratio IC50 (Homo sapiens) | IC50 [1] [µM] | Activity [2] | IC50 [3] [µM] |
| --- | --- | --- | --- | --- | --- | --- | --- |
| C=CC(=O)Nc1cccc(Nc2nc(Nc3ccc(N4CCN(CCOCCNc5cccc6c5C(=O)N(C5CCC(=O)NC5=O)C6=O)CC4)cc3OC)ncc2C(F)(F)F)c1 (configuration not stated) | 36.9 | 0.22 | 0.5 | 15 | 0.364 | Active | 0.0241 |
| C=CC(=O)Nc1cccc(Nc2nc(Nc3ccc(N4CCN(C(=O)CCCCNc5cccc6c5C(=O)N(C5CCC(=O)NC5=O)C6=O)CC4)cc3OC)ncc2C(F)(F)F)c1 (configuration not stated) | > 100 | 1.09 | 6.74 | 5 | 0.614 | Active | 0.121 |
| C=CC(=O)Nc1cccc(Nc2nc(Nc3ccc(N4CCN(C(=O)CCCCCCCC(=O)Nc5cccc6c5C(=O)N(C5CCC(=O)NC5=O)C6=O)CC4)cc3OC)ncc2C(F)(F)F)c1 (configuration not stated) | > 100 | 1.53 | 5.31 | – | – | – | – |
| C=CC(=O)Nc1cccc(Nc2nc(Nc3ccc(N4CCN(CC(=O)NCCCCNC(=O)CNc5cccc6c5C(=O)N(C5CCC(=O)NC5=O)C6=O)CC4)cc3OC)ncc2C(F)(F)F)c1 (configuration not stated) | > 100 | 11.7 | 13.2 | – | – | – | – |
| C=CC(=O)Nc1cccc(Nc2nc(Nc3ccc(N4CCN(CC(=O)NCCNC(=O)CNc5cccc6c5C(=O)N(C5CCC(=O)NC5=O)C6=O)CC4)cc3OC)ncc2C(F)(F)F)c1 (configuration not stated) | > 100 | 8.89 | 13.4 | – | – | – | – |
| C=CC(=O)Nc1cccc(Nc2nc(Nc3ccc(N4CCN(CC(=O)NCCCCCNC(=O)CNc5cccc6c5C(=O)N(C5CCC(=O)NC5=O)C6=O)CC4)cc3OC)ncc2C(F)(F)F)c1 (configuration not stated) | > 100 | 12.8 | 14.4 | – | – | – | – |
| C=CC(=O)Nc1cccc(Nc2nc(Nc3ccc(N4CCN(CC(=O)NCCCNc5cccc6c5C(=O)N(C5CCC(=O)NC5=O)C6=O)CC4)cc3OC)ncc2C(F)(F)F)c1 (configuration not stated) | > 100 | 5.76 | 2.58 | – | – | – | – |
| C=CC(=O)Nc1cccc(Nc2nc(Nc3ccc(N4CCN(C(=O)CCCCCC(=O)Nc5cccc6c5C(=O)N(C5CCC(=O)NC5=O)C6=O)CC4)cc3OC)ncc2C(F)(F)F)c1 (configuration not stated) | 29.8 | 0.59 | 0.9 | 32 | 0.648 | Active | 0.0203 |
| C=CC(=O)Nc1cccc(Nc2nc(Nc3ccc(N4CCN(C(=O)CCCCCCC(=O)Nc5cccc6c5C(=O)N(C5CCC(=O)NC5=O)C6=O)CC4)cc3OC)ncc2C(F)(F)F)c1 (configuration not stated) | > 100 | 5.02 | 2.55 | – | – | – | – |
| C=CC(=O)Nc1cccc(Nc2nc(Nc3ccc(N4CCN(CC(=O)NCCCNC(=O)CNc5cccc6c5C(=O)N(C5CCC(=O)NC5=O)C6=O)CC4)cc3OC)ncc2C(F)(F)F)c1 (configuration not stated) | > 100 | 7.35 | 7.67 | – | – | – | – |
| C=CC(=O)Nc1cccc(Nc2nc(Nc3ccc(N4CCN(C(=O)CCCC(=O)Nc5cccc6c5C(=O)N(C5CCC(=O)NC5=O)C6=O)CC4)cc3OC)ncc2C(F)(F)F)c1 (configuration not stated) | > 100 | 0.95 | 1.35 | 98 | 3.23 | Active | 0.033 |

Now from value to compound, other results behind:

| IC50 (A549) [µM] | IC50 (NCI-H1975) [µM] | IC50 (PC-9) [µM] | SMILES | Ratio IC50 (Homo sapiens) | IC50 [1] [µM] | Activity [2] | IC50 [3] [µM] |
| --- | --- | --- | --- | --- | --- | --- | --- |
| > 100 | 4.68 | 1.89 | C=CC(=O)Nc1cccc(Nc2nc(Nc3ccc(N4CCN(CC(=O)NCCNc5cccc6c5C(=O)N(C5CCC(=O)N(C)C5=O)C6=O)CC4)cc3OC)ncc2C(F)(F)F)c1 (configuration not stated) | 11 | 1.4 | – | 0.134 |
| > 100 | 0.52 | 3.43 | C=CC(=O)Nc1cccc(Nc2nc(Nc3ccc(N4CCN(CC(=O)NCCCCCNc5cccc6c5C(=O)N(C5CCC(=O)NC5=O)C6=O)CC4)cc3OC)ncc2C(F)(F)F)c1 (configuration not stated) | – | – | – | – |
| > 100 | 4.72 | 3.51 | C=CC(=O)Nc1cccc(Nc2nc(Nc3ccc(N4CCN(CC(=O)NCCNc5ccc6c(c5)C(=O)N(C5CCC(=O)NC5=O)C6=O)CC4)cc3OC)ncc2C(F)(F)F)c1 (configuration not stated) | – | – | – | – |
| 33.3 | 8.36 | 4.86 | C=CC(=O)Nc1cccc(Nc2nc(Nc3ccc(N4CCN(CC(=O)NCCNc5cccc6c5CN(C5CCC(=O)NC5=O)C6=O)CC4)cc3OC)ncc2C(F)(F)F)c1 (configuration not stated) | 2.5 | 2.4 | – | 0.965 |
| > 100 | 9.31 | 7.34 | C=CC(=O)Nc1cccc(Nc2nc(Nc3ccc(N4CCN(CC(=O)NCCOc5cccc6c5C(=O)N(C5CCC(=O)NC5=O)C6=O)CC4)cc3OC)ncc2C(F)(F)F)c1 (configuration not stated) | – | – | – | – |
| > 100 | 2.81 | 3.69 | C=CC(=O)Nc1cccc(Nc2nc(Nc3ccc(N4CCN(C(=O)CCCCCCCCCC(=O)Nc5cccc6c5C(=O)N(C5CCC(=O)NC5=O)C6=O)CC4)cc3OC)ncc2C(F)(F)F)c1 (configuration not stated) | – | – | – | – |
| > 100 | 1.56 | 4.62 | C=CC(=O)Nc1cccc(Nc2nc(Nc3ccc(N4CCN(C(=O)CCCCC(=O)Nc5cccc6c5C(=O)N(C5CCC(=O)NC5=O)C6=O)CC4)cc3OC)ncc2C(F)(F)F)c1 (configuration not stated) | – | – | – | – |
| > 100 | 17.1 | 18.1 | C=CC(=O)Nc1cccc(Nc2nc(Nc3ccc(N4CCN(C(=O)CCCCCCCCCCCC(=O)Nc5cccc6c5C(=O)N(C5CCC(=O)NC5=O)C6=O)CC4)cc3OC)ncc2C(F)(F)F)c1 (configuration not stated) | – | – | – | – |
| > 100 | 8.55 | 8.77 | C=CC(=O)Nc1cccc(Nc2nc(Nc3ccc(N4CCN(C(=O)CCCCCCCCCCC(=O)Nc5cccc6c5C(=O)N(C5CCC(=O)NC5=O)C6=O)CC4)cc3OC)ncc2C(F)(F)F)c1 (configuration not stated) | – | – | – | – |
| > 100 | 17 | 26.7 | C=CC(=O)Nc1cccc(Nc2nc(Nc3ccc(N4CCN(C(=O)CCCCCCCCC(=O)Nc5cccc6c5C(=O)N(C5CCC(=O)NC5=O)C6=O)CC4)cc3OC)ncc2C(F)(F)F)c1 (configuration not stated) | – | – | – | – |
| > 100 | 62 | 46.5 | C=CC(=O)Nc1cccc(Nc2nc(Nc3ccc(N4CCN(C(=O)CCCCCCCCCCCCC(=O)Nc5cccc6c5C(=O)N(C5CCC(=O)NC5=O)C6=O)CC4)cc3OC)ncc2C(F)(F)F)c1 (configuration not stated) | – | – | – | – |
| > 100 | 17 | 6.61 | C=CC(=O)Nc1cccc(Nc2nc(Nc3ccc(N4CCN(CC(=O)NCCCCCCNC(=O)CNc5cccc6c5C(=O)N(C5CCC(=O)NC5=O)C6=O)CC4)cc3OC)ncc2C(F)(F)F)c1 (configuration not stated) | – | – | – | – |
| > 100 | 4.14 | 3.28 | C=CC(=O)Nc1cccc(Nc2nc(Nc3ccc(N4CCN(CC(=O)NCCCCCCNc5cccc6c5C(=O)N(C5CCC(=O)NC5=O)C6=O)CC4)cc3OC)ncc2C(F)(F)F)c1 (configuration not stated) | – | – | – | – |
| 7.57 | 0.13 | 0.27 | C=CC(=O)Nc1cccc(Nc2nc(Nc3ccc(N4CCN(C(C)=O)CC4)cc3OC)ncc2C(F)(F)F)c1 [ROCILETINIB] | – | – | – | – |
